In test [1] the test system is mouse bone marrow cells infected with Bcr-abl retrovirus. Put plainly: Methylcellulose colony formation and re-plating of Bcr-Abl infected bone marrow cells. The format is cell-based. Particulars: 72 h pre-treatment; for colony formation in the first methylcellulose plating: compared to control DMSO group, FIG. 8. From the text: Colony formation was scored 10 days after plating.
FIG. 9. Colonies obtained in the 1st plating experiment of FIG. 8 were resuspended and washed in PBS containing 10% FCS. Cells were resuspended in OPTI-MEM media and plated in methylcellulose at a concentration of 5000 cells per 35 mm plate. Colony formation was scored 10 days after plating.
Mouse bone marrow cells were infected with a bicistronic retroviral Bcr-Abl vector (Bcr-Abl-IRES-GFP). […] Clonogenic colony formation assays assess the self-renewal capacity of early progenitor/stem cells.

Test [2] concerns bone marrow transplant model of Bcr-Abl to induce CML in mice. Put plainly: Bone marrow transplant model of Bcr-Abl induced CML, survival. The format is in vivo, mouse. The following applies: groups of 8 mice; two week treatment; compound A 80 mg/kg po qd, AMN107 75 mg/kg po qd or combination; FIG. 10. The protocol: A bone marrow transplant model of Bcr-Abl was used to induce CML in mice. Briefly, a bicistronic retroviral Bcr-Abl vector (Bcr-Abl-IRES-GFP) was used to produce virus to infect progenitor bone marrow (BM) cells collected from mice previously treated with 5-FU. After 3 rounds of infection, 200,000 GFP positive progenitor BM cells were transplanted into lethally irradiated hosts. Two weeks post-BMT, peripheral blood samples were analyzed by FACS analysis to establish the percentage of GFP positive cells present in the recipient mice. […] During the entire study period the mice were followed for any sign of leukemia development, such as hunched position, lost of body weight or inability of grooming. The animals were sacrificed when they reached any of the previously described signs.

The subject of test [3] is primary CD34+ CP CML cells. Put plainly: Colony forming assay and serial re-plating of primary CML cells. The format is cell-based, human. Particulars: for proliferation index (PI) of re-plated colonies (AUC): 3d nilotinib and/or compound A exposure, 132 colonies per arm, compared to untreated cells, FIG. 7.
Description: Primary cells were obtained from newly diagnosed and untreated patients with CML in chronic phase. These cells were enriched for CD34+using magnetic-activated cell sorting prior to cryopreservation in 10% DMSO and 4% human albumin solution in liquid nitrogen. Samples were thawed and washed in a solution of DNAse, human albumin solution, magnesium chloride, and phosphate buffered saline. Upon thaw primary cells were cultured in a serum free medium comprising of Iscove's Modified Dulbecco Medium with bovine serum albumin, insulin, transferring, P2 mercaptoethanol and growth factors (100 ng/mL Flt3-ligand, 100 ng/mL stem cell factor, 20 ng/mL interleukin (IL)-3, IL-6 and 50 ng/mL granulocyte-colony stimulating factor) for 24 hours.
Viable cells were enumerated using trypan blue dye exclusion and set up in culture in serum free medium (SFM) with the stated concentrations of Compound A and/or nilotinib. Following 72 hours (h) culture the cells were washed twice in phosphate buffered solution (PBS) and viable cells counted, again by trypan blue exclusion. These cells were then used for a series of colony forming and re-plating assays.
In the colony forming assay (CFA) a single cell suspension is created in semisolid media with appropriate cytokines. This enables the assessment of colony formation from each individual cell. In order to measure the effect of compound A and/or nilotinib on the relative abundance of CD34+ CP CML progenitor cells, CFA were set up in METHOCULT with cells plated at an initial concentration of 4000 cells per mL in duplicate. Colonies were identified and enumerated 14-16 days (d) following plating.
An accepted in vitro technique to approximate self-renewal activity is serial re-plating. Colonies derived from a CFA are individually plucked and re-dispersed in further METHOCULT. The capacity to reform colonies following re-dispersion is related to the number of primitive progenitors remaining within each individual colony and is therefore an indirect measurement of self-renewal. Following CFA 20-30 individual non-erythroid colonies from each experimental arm were then plucked with a p10 pipettor (one tip per colony using an inverted microscope) and carefully dispersed into 100 μL METHOCULT with a further 10 μL SFM in 96 well plates prior to incubation for a further 7d. Resultant secondary colonies were enumerated in each well and; in the case of wells containing secondary colonies; the entire contents were re-dispersed in a further 100 μL METHOCULT to assess tertiary colony formation.
Colony assays were performed in METHOCULT with cells plated at an initial concentration of 4000 cells per mL in duplicate. Colonies were identified and enumerated 14-16 days (d) following plating. […]
The subject of the next test is CML. Particulars: standard of therapy for CML; cited from earlier work.

Structures can show the parent of a compound that is named as a salt.

As for `Cc1cn(-c2cc(NC(=O)c3ccc(C)c(Nc4nccc(-c5cccnc5)n4)c3)cc(C(F)(F)F)c2)cn1` [nilotinib], the “colony formation in the first methylcellulose plating” value in test [1] is “No reduction of colony formation”. Further, the “number of animals sacrificed to date” value in test [2] was determined as 5. Also, the “re-plating capacity (total number of secondary colonies)” value in test [3] (3d exposure, Compound A 10 nM and/or nilotinib 5 μM, 4 experiments, FIG. 6) was “non-significant increase in re-plating capacity”. For the same molecule, the “proliferation index (PI) of re-plated colonies (AUC)” value in test [3] (4 experiments) was “relative increase in PI”.

Take `Cc1ccc(NC(=O)c2ccc(CN3CCN(C)CC3)cc2)cc1Nc1nccc(-c2cccnc2)n1` [Imatinib mesylate]: the response rates result in the test with CML was “more than 96%”.

In the case of `Cc1c(C(=O)Nc2ccc(N3C[C@@H](C)O[C@@H](C)C3)nc2)cccc1-c1ccc(OC(F)(F)F)cc1` [Compound A, 2-Methyl-4′-trifluoromethoxy-biphenyl-3-carboxylic acid [6-(cis-2,6-dimethyl-morpholin-4-yl)-pyridin-3-yl]-amide], the “colony number upon secondary re-plating of the colonies” value in test [1] (FIG. 9) is listed as “pronounced reduction in colony number”. The “colony formation in the first methylcellulose plating” value in test [1] is given as “No reduction of colony formation”. In test [2], the “number of animals sacrificed to date” value is reported as “all”. The “re-plating capacity (total secondary and tertiary colonies as percentage of untreated control)” value in test [3] (72 h culture with drug, first and second re-plate, FIG. 1 and 2) was “reduction in re-plating capacity”. Besides, in test [3] (4 experiments), the “proliferation index (PI) of re-plated colonies (AUC)” value was “reduction in PI”.

(Values after US20120329798A1, “METHODS AND COMPOSITIONS FOR TREATING LUEKEMIA” (priority 2009, published 2012).)
